Data: ChEMBL document CHEMBL6153096, “Development of Potent and Selective CK1α Molecular Glue Degraders” (J Med Chem, 2025)
Blank lines part the entries; values can stand above or below the compound they belong to. Calls of active or inactive are those of the source. The calls are words filed in the database; no cut-off is given here.

Tests used:
[1] = molecular target: T1, Cereblon/Casein kinase I alpha (Homo sapiens, UniProt P48729+Q96SW2); assay: Molecular glue activity at CRBN/CK1-alpha in human MOLM-13 cells assessed as increase in p21 level at 0.1 to 1 uM incubated for 24 hrs by Western blot analysis; type: cell-based; conditions: dose 0.1-1 µM
Target sequence in this assay (P48729 2-337 limits assumed): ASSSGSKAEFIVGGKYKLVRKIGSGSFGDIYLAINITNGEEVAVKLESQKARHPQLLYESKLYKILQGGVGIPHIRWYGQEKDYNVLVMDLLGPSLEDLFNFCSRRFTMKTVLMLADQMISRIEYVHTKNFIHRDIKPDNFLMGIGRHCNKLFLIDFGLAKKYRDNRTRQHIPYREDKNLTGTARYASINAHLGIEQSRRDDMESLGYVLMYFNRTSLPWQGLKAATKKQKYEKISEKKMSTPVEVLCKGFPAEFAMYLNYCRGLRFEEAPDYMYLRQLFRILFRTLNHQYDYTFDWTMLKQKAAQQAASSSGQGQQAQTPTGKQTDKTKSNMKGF
Target sequence in this assay (Q96SW2 whole entry partner): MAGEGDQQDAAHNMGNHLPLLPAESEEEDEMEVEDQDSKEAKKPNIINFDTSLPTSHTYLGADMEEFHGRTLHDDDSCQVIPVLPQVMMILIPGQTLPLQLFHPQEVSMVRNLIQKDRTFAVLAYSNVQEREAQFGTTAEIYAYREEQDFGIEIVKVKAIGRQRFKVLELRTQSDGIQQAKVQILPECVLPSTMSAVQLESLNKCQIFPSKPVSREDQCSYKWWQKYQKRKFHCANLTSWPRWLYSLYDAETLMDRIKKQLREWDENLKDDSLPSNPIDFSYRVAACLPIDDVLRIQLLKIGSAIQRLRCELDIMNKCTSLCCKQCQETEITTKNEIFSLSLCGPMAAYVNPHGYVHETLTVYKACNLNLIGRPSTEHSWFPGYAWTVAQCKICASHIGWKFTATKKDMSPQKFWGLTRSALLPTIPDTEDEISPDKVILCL

[2] = molecular target: T1, Cereblon/Casein kinase I alpha; assay: Molecular glue activity at CRBN/CK1-alpha in human MOLM-14 cells assessed as increase in p53 level at 0.1 to 1 uM incubated for 24 hrs by Western blot analysis; type: cell-based; conditions: dose 0.1-1 µM
Target sequence in this assay (P48729 2-337 limits assumed): as the sequence (P48729 2-337 limits assumed) above
Target sequence in this assay (Q96SW2 whole entry partner): as the sequence (Q96SW2 whole entry partner) above

[3] = molecular target: T1, Cereblon/Casein kinase I alpha; assay: Molecular glue activity at CRBN/CK1-alpha in human MOLM-14 cells assessed as increase in p21 level at 0.1 to 1 uM incubated for 24 hrs by Western blot analysis; type: cell-based; conditions: dose 0.1-1 µM
Target sequence in this assay (P48729 2-337 limits assumed): as the sequence (P48729 2-337 limits assumed) above
Target sequence in this assay (Q96SW2 whole entry partner): as the sequence (Q96SW2 whole entry partner) above

[4] = molecular target: T1, Cereblon/Casein kinase I alpha; assay: Molecular glue activity at CRBN/CK1-alpha in human MOLM-13 cells assessed as increase in MDM2 level at 0.1 to 1 uM incubated for 24 hrs by Western blot analysis; type: cell-based; conditions: dose 0.1-1 µM
Target sequence in this assay (P48729 2-337 limits assumed): as the sequence (P48729 2-337 limits assumed) above
Target sequence in this assay (Q96SW2 whole entry partner): as the sequence (Q96SW2 whole entry partner) above

[5] = molecular target: T1, Cereblon/Casein kinase I alpha; assay: Molecular glue activity at CRBN/CK1-alpha in human MOLT-4 cells with CRBN-/- assessed as induction of CK1-alpha degradation at 1 uM incubated for 5 hrs by quantitative mass spectrometry based proteomic analysis; type: cell-based
Target sequence in this assay (P48729 2-337 limits assumed): as the sequence (P48729 2-337 limits assumed) above
Target sequence in this assay (Q96SW2 whole entry partner): as the sequence (Q96SW2 whole entry partner) above

[6] = molecular target: T1, Cereblon/Casein kinase I alpha; assay: Molecular glue activity at CRBN/CK1-alpha in human MOLM-13 cells assessed as increase in p53 level at 0.1 to 1 uM incubated for 24 hrs by Western blot analysis; type: cell-based; conditions: dose 0.1-1 µM
Target sequence in this assay (P48729 2-337 limits assumed): as the sequence (P48729 2-337 limits assumed) above
Target sequence in this assay (Q96SW2 whole entry partner): as the sequence (Q96SW2 whole entry partner) above

[7] = molecular target: T1, Cereblon/Casein kinase I alpha; assay: Molecular glue activity at CRBN/CK1-alpha in human MOLM-14 cells assessed as increase in MDM2 level at 0.1 to 1 uM incubated for 24 hrs by Western blot analysis; type: cell-based; conditions: dose 0.1-1 µM
[8] = Metabolic stability in human liver microsomes assessed as intrinsic clearance; type: ADME, Microsome
[9] = Metabolic stability in mouse liver microsomes assessed as half life; type: ADME, Microsome
[10] = Metabolic stability in human liver microsomes assessed as half life; type: ADME, Microsome
[11] = Metabolic stability in mouse liver microsomes assessed as intrinsic clearance; type: ADME, Microsome
[12] = molecular target: T1, Cereblon/Casein kinase I alpha; assay: Molecular glue activity at CRBN/HiBiT-tagged CK1-alpha in human Jurkat cells assessed as induction of CK1-alpha degradation incubated for 5 hrs by Nano-Glo HiBiT assay; type: cell-based
[13] = test system: MOLT-4; assay: Induction of GSPT1 degradation in human MOLT-4 cells at 1 uM incubated for 5 hrs by quantitative mass spectrometry based proteomic analysis; type: cell-based
[14] = test system: MOLT-4; assay: Induction of IKZF1 degradation in human MOLT-4 cells at 1 uM incubated for 5 hrs by quantitative mass spectrometry based proteomic analysis; type: cell-based
[15] = test system: MOLT-4; assay: Induction of WEE1 degradation in human MOLT-4 cells at 1 uM incubated for 5 hrs by quantitative mass spectrometry based proteomic analysis; type: cell-based
[16] = molecular target: Zinc finger protein Aiolos (Homo sapiens) (UniProt Q9UKT9); assay: Induction of IKZF3 degradation in human MOLT-4 cells at 1 uM incubated for 5 hrs by quantitative mass spectrometry based proteomic analysis; type: cell-based
Zinc finger protein Aiolos (Homo sapiens), sequence (Q9UKT9 whole entry): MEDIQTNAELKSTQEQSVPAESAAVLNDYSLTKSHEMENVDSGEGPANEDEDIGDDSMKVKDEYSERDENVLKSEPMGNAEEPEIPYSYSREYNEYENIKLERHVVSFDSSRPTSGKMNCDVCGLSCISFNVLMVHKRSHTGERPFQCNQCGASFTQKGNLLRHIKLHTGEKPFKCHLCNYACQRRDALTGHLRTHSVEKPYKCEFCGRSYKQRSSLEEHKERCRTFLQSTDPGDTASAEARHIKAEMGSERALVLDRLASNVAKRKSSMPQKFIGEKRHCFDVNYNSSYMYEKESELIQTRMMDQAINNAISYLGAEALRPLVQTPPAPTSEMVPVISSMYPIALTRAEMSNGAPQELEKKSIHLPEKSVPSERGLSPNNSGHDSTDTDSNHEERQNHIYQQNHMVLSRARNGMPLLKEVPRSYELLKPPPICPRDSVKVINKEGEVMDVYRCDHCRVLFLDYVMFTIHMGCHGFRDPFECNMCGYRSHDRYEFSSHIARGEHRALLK

[17] = test system: Jurkat; assay: Induction of HiBiT-tagged WEE1 degradation in human Jurkat cells incubated for 5 hrs by Nano-Glo HiBiT assay relative to control; type: cell-based
[18] = molecular target: Zinc finger protein Helios (Homo sapiens) (UniProt Q9UKS7); assay: Induction of IKZF2 degradation in human MOLT-4 cells at 1 uM incubated for 5 hrs by quantitative mass spectrometry based proteomic analysis; type: cell-based
Zinc finger protein Helios (Homo sapiens), sequence (Q9UKS7 whole entry): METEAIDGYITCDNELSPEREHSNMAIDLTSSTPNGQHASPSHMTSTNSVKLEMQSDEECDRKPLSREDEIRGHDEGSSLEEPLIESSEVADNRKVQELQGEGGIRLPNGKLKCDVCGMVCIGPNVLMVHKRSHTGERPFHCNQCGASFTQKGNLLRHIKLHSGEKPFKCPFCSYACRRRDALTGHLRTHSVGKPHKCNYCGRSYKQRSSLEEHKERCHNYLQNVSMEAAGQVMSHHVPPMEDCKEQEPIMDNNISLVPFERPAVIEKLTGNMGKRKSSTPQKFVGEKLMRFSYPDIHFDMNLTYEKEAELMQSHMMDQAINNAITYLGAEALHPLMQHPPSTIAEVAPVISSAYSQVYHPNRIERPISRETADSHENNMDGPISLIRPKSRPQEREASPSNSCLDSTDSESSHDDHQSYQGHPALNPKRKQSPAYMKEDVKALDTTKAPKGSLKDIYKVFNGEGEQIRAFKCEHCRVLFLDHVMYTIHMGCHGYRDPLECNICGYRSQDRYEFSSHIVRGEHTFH

[19] = Induction of HiBiT-tagged WEE1 degradation in human Jurkat cells incubated for 5 hrs by Nano-Glo HiBiT assay; type: cell-based
[20] = molecular target: T1, Cereblon/Casein kinase I alpha; assay: Molecular glue activity at CRBN/CK1-alpha in human MOLM-14 cells assessed as induction of CK1-alpha degradation at 1 uM incubated for 5 hrs by Western blot analysis; type: cell-based
[21] = test system: MOLM-14; assay: Antiproliferative activity against human MOLM-14 cells incubated for 72 hrs by CellTiter-Glo Luminescent Cell Viability Assay; type: functional, cell-based
[22] = molecular target: T1, Cereblon/Casein kinase I alpha; assay: Molecular glue activity at CRBN/CK1-alpha in human MOLM-13 cells assessed as induction of CK1-alpha degradation at 1 uM incubated for 5 hrs by Western blot analysis; type: cell-based
[23] = test system: MOLM-13; assay: Antiproliferative activity against human MOLM-13 cells incubated for 72 hrs by CellTiter-Glo Luminescent Cell Viability Assay; type: functional, cell-based; conditions: MOLM-13, 72 h
[24] = test system: MOLM-14; assay: Antiproliferative activity against human MOLM-14 cells with CRBN-/- incubated for 72 hrs by CellTiter-Glo Luminescent Cell Viability Assay; type: functional, cell-based

Compound: O=C1CCC(N2Cc3cc(Nc4noc5ccccc45)ccc3C2=O)C(=O)N1 (configuration not stated)
Activity [1]: Active | Activity [2]: Active | Activity [3]: Active | Activity [4]: Active | Activity [5]: Not active; Compound Induced Ck1-Alpha Degradation In A Crbn Dependent Manner | Activity [6]: Active | Activity [7]: Active

Compound: CCN(CC)CCNC(=O)c1c(C)[nH]c(/C=C2\C(=O)Nc3ccc(F)cc32)c1C [SUNITINIB]
CLH [8]: 18 µL/min/mg | half-life ([9]; liver microsomes): 20.9 min | t1/2 [10]: 39.4 min | CLH [11]: 33 µL/min/mg

Compound: O=C1CCC(N2Cc3c(NC(=O)c4cnc5ccccc5c4)cccc3C2=O)C(=O)N1 (configuration not stated)
DC50 [12]: > 10000 nM

Compound: O=C1CCC(N2Cc3cc(NC(=O)c4cc5ncccn5n4)ccc3C2=O)C(=O)N1 (configuration not stated)
DC50 [12]: 61 nM

Compound: O=C1CCC(N2Cc3cc(-c4cc5ccccc5cn4)ccc3C2=O)C(=O)N1 (configuration not stated)
Emax [17]: 80% | Activity [18]: Active | Activity [13]: Active | DC50 [12]: 10 nM | Activity [5]: Not active; Compound Induced Ck1-Alpha Degradation In A Crbn Dependent Manner | DC50 [19]: 43000 nM | Activity [15]: Active

Compound: O=C1CCC(N2Cc3ccc(NC(=O)c4cn5ccccc5n4)cc3C2=O)C(=O)N1 (configuration not stated)
DC50 [12]: > 10000 nM

Compound: O=C1CCC(N2Cc3cc(NC(=O)c4cn5cccc(C(F)(F)F)c5n4)ccc3C2=O)C(=O)N1 (configuration not stated)
Activity [20]: Active | Activity [21]: Active | Activity [22]: Active | IC50 [23]: 29 nM | DC50 [12]: 1.6 nM | EC90 [12]: 25 nM | Activity [24]: inactive

Compound: COc1cccn2cc(C(=O)Nc3ccc4c(c3)CN(C3CCC(=O)NC3=O)C4=O)nc12 (configuration not stated)
DC50 [12]: 8.1 nM | EC90 [12]: 73.1 nM

Compound: O=C1CCC(N2Cc3cc(CNC(=O)c4cn5ccccc5n4)ccc3C2=O)C(=O)N1 (configuration not stated)
DC50 [12]: > 10000 nM

The next lines start with results.

DC50 [12]: 17.5 nM | EC90 [12]: 135 nM
Compound: O=C1CCC(N2Cc3cc(NC(=O)c4cn5ccc(F)cc5n4)ccc3C2=O)C(=O)N1 (configuration not stated)

CLH [8]: 30 µL/min/mg | t1/2 ([9]; microsomes): > 120 min | t1/2 [10]: 23.4 min | DC50 [12]: 79 nM | CLH [11]: < 6 µL/min/mg | Activity [16]: inactive
Compound: O=C1CCC(N2Cc3cc(NC(=O)c4cnc5ccccc5c4)ccc3C2=O)C(=O)N1 (configuration not stated)
Activity [13]: inactive | Activity [14]: inactive | Activity [15]: inactive

DC50 [12]: 11.1 nM
Compound: O=C1CCC(N2Cc3cc(NC(=O)c4nc5ccccc5[nH]4)ccc3C2=O)C(=O)N1 (configuration not stated)

DC50 [12]: 8.4 nM
Compound: Cc1c(C(=O)Nc2ccc3c(c2)CN(C2CCC(=O)NC2=O)C3=O)nc2ccccn12 (configuration not stated)

DC50 [12]: 61 nM
Compound: O=C1CCC(N2Cc3cc(NC(=O)c4nc5ccccn5n4)ccc3C2=O)C(=O)N1 (configuration not stated)

DC50 [12]: 8.8 nM
Compound: O=C1CCC(N2Cc3cc(NC(=O)c4cnc5ccccc5n4)ccc3C2=O)C(=O)N1 (configuration not stated)

DC50 [12]: 87 nM
Compound: O=C1CCC(N2Cc3cc(NC(=O)c4cc5ccccn5c4)ccc3C2=O)C(=O)N1 (configuration not stated)
